Data set [1] concerns Candida albicans. In words: MIC against fungi (Candida albicans). Type of data set: cell-based.
For data set [2], the system named is methicillin-resistant Staphylococcus aureus (MRSA). In words: MIC against methicillin-resistant Staphylococcus aureus. The class given is cell-based.
The test system of data set [3] is microbes. As to the kind of experiment: Rapid bactericidal test (shaking method, ASTM E2149 13a). The class given is cell-based. As to conditions: Ala12 diluted to 10 mg/mL with phosphate buffer, contact time 10 mins. As for the experimental part:
The Ala12 was diluted to 10 mg/mL with phosphate buffer. The shaking method (see the ASTM standard E2149 13a 2015) was used to detect their antibacterial activity, wherein the PBS group was used as a blank control. The contact time of bacteria treated with Ala12 is 10 mins.

Data set [4] can be described thus: Skin irritation according to ISO 10993-10:2010. The conditions noted are these: concentration as high as 3.9 mg/mL.
Data set [5] is described as follows: Skin sensitization according to ISO 10993-10:2010. The conditions noted are these: concentration as high as 3.9 mg/mL.
Data set [6] is described as follows: Dynamic light scattering (DLS) and zeta-potential of self-assembled nanoparticles. The class given is physicochemical. An excerpt: The dynamic light scattering (DLS) and zeta-potential indicate that […] assembles into nanoparticles with an average size of around 50-200 nm (FIG. 5) and the surface potential of the generated nanoparticle can be +2.15 mV, which means the nanoparticle is positive charged and the hydrophilic -NH2 groups are probably distributed on the outer surfaces.

Some results are limits rather than exact numbers.

With `CCCCCCCCCCCCOC(=O)C(C)N` (stereo not shown) [Ala12], the MIC in data set [1] and in data set [2] was 390 μg/m each time. The “time within which the amino ester kills microbes” value in data set [3] is at most 10 min. Further, the skin irritation entry in data set [4] was “completely free”. The skin sensitization entry in data set [5] is given as “completely free”. Moreover, the “surface potential of the generated nanoparticle (zeta-potential)” value in data set [6] is reported as “+2.15 mV”. For the same compound, the “average size of nanoparticles” value in data set [6] (DLS, FIG. 5) was 50-200 nm.
